For 7 compounds, IC50 and GI50 results are on record in US20250136614A1, “2,7-SUBSTITUTED PYRROLO[2,1-F][1,2,4]TRIAZINE COMPOUND HAVING PROTEIN KINASE INHIBITORY ACTIVITY” (Magicbullettherapeutics Co., Ltd., priority 2021, published 2025).

Holding throughout (format): cell-based
One experiment relates to H1975. The experiment can be described thus: Cancer cell growth inhibition (CellTiter-Glo, 72 hours). Conditions: Homo sapiens, NCI-H1975, H1975 cells, read-out: GI50s (μM) H1975. On the procedure: (§1) Seeding 3000 cells per well in a 96-well plate. After cell stabilization, treat the cells with compounds diluted in 0.5% DMSO at a ⅓ serial dilution and culture for 72 hours. Following treatment with CellTiter-Glo, luminescence is produced only in the presence of ATP, as luciferase degrades luciferin. Luminescence values were measured using Envision (PerkinElmer). Based on the measured luminescence values, the concentration of compounds causing cell death was calculated to determine the GI50 value.
(§2) The activity values were categorized into three levels • A: IC50<1 μM • B: 1 μM≤IC50<10 μM, • C: IC50≥10 μM
For orientation: Cellular ATP, detected with luciferase, serves as a proxy for viable cell number.

A further experiment deals with H23. The experiment is described as above. The note with it: Homo sapiens, NCI-H23, H23 cells, read-out: GI50s (μM) H23. The procedure:
as §1, §2

Another experiment deals with H358. The description is as above. Conditions: Homo sapiens, NCI-H358, H358 cells, read-out: GI50s (μM) H358. On the procedure:
as §1, §2

For the next experiment, the system named is HCT116. Described as above. The note with it: Homo sapiens, HCT-116, HCT116 cells, read-out: GI50s (μM) HCT116. On the procedure: as §1, §2
A further experiment relates to MDA-MB-231. The description is as above. Conditions: Homo sapiens, MDA-MB-231 cells, read-out: GI50s (μM) MDA-MB-231. On the procedure:
as §1, §2

Another experiment deals with colo205. The description is as above. The note with it: Homo sapiens, COLO 205, colo205 cells, read-out: GI50s (μM) colo205. On the procedure:
as §1, §2

A further experiment concerns the target T1, Ba/F3 FLT3 (ITD) (Homo sapiens, UniProt P36888, cells depend on it, form not given).
T1 sequence (P36888 1-993): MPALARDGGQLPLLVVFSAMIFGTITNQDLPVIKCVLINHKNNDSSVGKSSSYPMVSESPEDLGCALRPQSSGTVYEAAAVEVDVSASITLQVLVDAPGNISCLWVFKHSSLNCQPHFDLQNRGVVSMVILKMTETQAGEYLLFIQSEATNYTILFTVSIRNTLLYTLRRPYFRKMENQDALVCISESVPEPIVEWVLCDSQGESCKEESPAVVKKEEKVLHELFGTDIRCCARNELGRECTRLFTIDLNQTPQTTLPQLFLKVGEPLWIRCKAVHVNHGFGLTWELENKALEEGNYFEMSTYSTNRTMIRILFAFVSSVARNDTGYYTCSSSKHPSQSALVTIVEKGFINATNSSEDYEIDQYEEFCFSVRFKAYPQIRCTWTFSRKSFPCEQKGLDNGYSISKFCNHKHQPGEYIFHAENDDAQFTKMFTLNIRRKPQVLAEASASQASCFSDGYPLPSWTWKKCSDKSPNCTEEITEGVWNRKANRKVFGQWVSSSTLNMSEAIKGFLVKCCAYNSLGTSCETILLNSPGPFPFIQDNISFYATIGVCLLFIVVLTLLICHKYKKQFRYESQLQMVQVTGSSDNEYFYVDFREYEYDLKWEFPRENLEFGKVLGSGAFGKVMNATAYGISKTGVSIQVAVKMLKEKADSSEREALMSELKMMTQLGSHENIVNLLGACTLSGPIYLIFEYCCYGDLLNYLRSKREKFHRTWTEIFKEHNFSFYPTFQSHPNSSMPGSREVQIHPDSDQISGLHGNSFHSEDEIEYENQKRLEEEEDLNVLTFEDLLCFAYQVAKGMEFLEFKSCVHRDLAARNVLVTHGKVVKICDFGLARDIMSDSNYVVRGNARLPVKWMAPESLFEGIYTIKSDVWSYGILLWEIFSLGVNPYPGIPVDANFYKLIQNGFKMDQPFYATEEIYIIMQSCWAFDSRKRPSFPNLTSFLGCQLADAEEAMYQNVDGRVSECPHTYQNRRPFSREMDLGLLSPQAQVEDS
In words: Ba/F3 cell growth inhibition (CellTiter-Glo, 72 hours). The note with it: read-out: Ba/F3 GI50s (μM) FLT3 (ITD). On the procedure:
(§3) Seeding 3000 cells per well in a 96-well plate. After cell stabilization, treat the cells with compounds diluted in […] at a ⅓ serial dilution and culture for 72 hours. Following treatment with CellTiter-Glo, luminescence is produced only in the presence of ATP, as luciferase degrades luciferin. Luminescence values were measured using Envision (PerkinElmer). Based on the measured luminescence values, the concentration of compounds causing cell death was calculated to determine the GI50 value.
(§4) The activity values were categorized into three levels. • A: IC50<1 μM • B: 1 μM≤IC50<10 μM, • C: IC50≥10 μM

The subject of a further experiment is Ba/F3 parental. Described as above. The note with it: Mus musculus, BaF3, Ba/F3 parental cells, read-out: Ba/F3 GI50s (μM) parental. On the procedure:
as §3, §4

As for `O=C1CCCCOc2ccc(cc2)-c2ccc3cnc(nn23)Nc2ccc(cc2)OCCCN1` [Example 38, (Z)-5,15-dioxa-3,9-diaza-2(7,2)-pyrrolo[2,1-f][1,2,4]triazina-1,4(1,4)-dibenzenacyclopentadecaphan-10-one], the IC50 with H1975 is at least 10 µM; in the experiment on H23, at least 10 µM; in the experiment on H358, 1 to 10 µM; in the experiment on HCT116, 1 to 10 µM; with MDA-MB-231, at least 10 µM; in the experiment with colo205, at least 10 µM. The IC50 with Ba/F3 parental is at least 10 µM. For the same compound, the GI50 on Ba/F3 FLT3 (ITD) is below 1 µM.
In the case of `CS(=O)(=O)Nc1cccc(-c2ccc3cnc(Nc4ccc(N5CCN(CCCCCOc6cccc7c6C(=O)N(C6CCC(=O)NC6=O)C7=O)CC5)cc4)nn23)c1` (centres unmarked) [Example 39], the IC50 in the experiment with H1975, with H23, in the experiment with H358, in the experiment with HCT116, with MDA-MB-231 and in the experiment with colo205 was at least 10 µM in each case. Further, in the experiment on Ba/F3 parental, the IC50 was at least 10 µM. The GI50 on Ba/F3 FLT3 (ITD) was at least 10 µM.
Consider `CS(=O)(=O)Nc1cccc(-c2ccc3cnc(Nc4ccc(N5CCN(CCCOc6cccc7c6C(=O)N(C6CCC(=O)NC6=O)C7=O)CC5)cc4)nn23)c1` (centres unmarked) [Example 40], for which the IC50 was at least 10 µM in the experiment with H1975; at least 10 µM with H23; at least 10 µM in the experiment on H358; 1 to 10 µM with HCT116; at least 10 µM in the experiment with MDA-MB-231; at least 10 µM in the experiment with colo205. For the same compound, the IC50 in the experiment with Ba/F3 parental lay in the range of 1 to 10 µM. The GI50 at Ba/F3 FLT3 (ITD) was below 1 µM.
Consider `CS(=O)(=O)Nc1cccc(-c2ccc3cnc(Nc4ccc(N5CCN(CCCCCCCOc6cccc7c6C(=O)N(C6CCC(=O)NC6=O)C7=O)CC5)cc4)nn23)c1` (centres unmarked) [Example 41], for which the IC50 with H1975, with H23, with H358, in the experiment with HCT116, with MDA-MB-231 and with colo205 was at least 10 µM in each case. The IC50 with Ba/F3 parental was 1 to 10 µM. Moreover, on Ba/F3 FLT3 (ITD), the GI50 was below 1 µM.
As for `CS(=O)(=O)Nc1cccc(-c2ccc3cnc(Nc4ccc(N5CCN(CCCCCCCCCCCOc6cccc7c6C(=O)N(C6CCC(=O)NC6=O)C7=O)CC5)cc4)nn23)c1` (centres unmarked) [Example 42], the IC50 with H1975, in the experiment with H23, in the experiment with H358, with HCT116, with MDA-MB-231 and with colo205 was at least 10 µM in each case. Moreover, in the experiment with Ba/F3 parental, the IC50 was 1 to 10 µM. For the same compound, the GI50 at Ba/F3 FLT3 (ITD) was below 1 µM.
Consider `Cc1ncsc1-c1ccc(CNC(=O)[C@@H]2C[C@@H](O)CN2C(=O)[C@@H](NC(=O)COCCN2CCN(c3ccc(Nc4ncc5ccc(-c6cccc(NS(C)(=O)=O)c6)n5n4)cc3)CC2)C(C)(C)C)cc1` [Example 83, (2S,4R)-1-((S)-3,3-dimethyl-2-(2-(2-(4-(4-((7-(3-(methanesulfonamido)phenyl)pyrrolo[2,1-f][1,2,4]triazin-2-yl)amino)phenyl)piperazin-1-yl)ethoxy)acetaamino)butanoyl)-4-hydroxy-N-(4-(4-methylthiazol-5-yl)benzyl)pyrrolidin-2-carboxamide], for which the IC50 in the experiment with H1975 is 1 to 10 µM; with H23 it was 1 to 10 µM; in the experiment on H358, 1 to 10 µM; with HCT116 it was 1 to 10 µM; in the experiment with MDA-MB-231 it was at least 10 µM; with colo205, at least 10 µM. The IC50 in the experiment on Ba/F3 parental was in the range of 1 to 10 µM. For the same compound, the GI50 at Ba/F3 FLT3 (ITD) is below 1 µM.
Take `Cc1ncsc1-c1ccc(CNC(=O)[C@@H]2C[C@@H](O)CN2C(=O)[C@@H](NC(=O)CCOCCOCCN2CCN(c3ccc(Nc4ncc5ccc(-c6cccc(NS(C)(=O)=O)c6)n5n4)cc3)CC2)C(C)(C)C)cc1` [Example 84, (2S,4R)-1-((S)-3,3-dimethyl-2-(3-(2-(2-(4-(4-((7-(3-(methanesulfonamido)phenyl)pyrrolo[2,1-f][1,2,4]triazin-2-yl)amino)phenyl)piperazin-1-yl)ethoxy)ethoxy)propanamido)butanoyl)-4-hydroxy-N-(4-(4-methylthiazol-5-yl)benzyl)pyrrolidin-2-carboxamide]: the IC50 with H1975 was 1 to 10 µM; in the experiment on H23 it was 1 to 10 µM; in the experiment with H358 it was 1 to 10 µM; with HCT116 it was 1 to 10 µM; with MDA-MB-231, at least 10 µM; in the experiment with colo205, at least 10 µM. The IC50 in the experiment with Ba/F3 parental fell in the range of 1 to 10 µM. The GI50 on Ba/F3 FLT3 (ITD) lay within 1 to 10 µM.
